Laboratory results taken from patent publication US20230340530A1, “Methods of Protecting RNA” (Pfizer Inc., priority 2020, published 2023).

Target: RNA samples (Chi18 or HCV IRES)
Assay: Droplet Digital Polymerase Chain Reaction (ddPCR) assay of RNA protection
Format: biochemical
Details: 50 mM Tris buffer pH 11.4, 16 hrs at 30° C. for Chi18 or 42° C. for HCV; table does not say which RNA; 600 µM to 0.018 µM compound, 2% DMSO; read-out: EC50 Values Obtained from the ddPCR Assay
Experimental: The ddPCR assays measured RNA integrity by converting intact RNA to cDNA by reverse transcription, then performing digital PCR in thousands of nanoliter-sized droplets for each sample. PCR was performed within each droplet, which allowed for more sensitive detection of subtle changes in RNA concentration compared to traditional PCR or qPCR. Additionally, primers/probes specific to the 5′ end of the RNA/cDNA transcript(s) were used to assess fragment integrity, i.e. degraded RNA had fewer 5′ positive droplets. The BioRad QX200 Droplet Digital PCR System was used for the ddPCR workflow.
RNA samples (Chi18 or HCV IRES) were diluted to 100 fg/µL in 50 mM Tris buffer pH 11.4. Boron compounds were tested in a dose-response format to determine EC50. A compound dilution plate that contained a 30 mM top concentration of compound in DMSO was serially (half-log) diluted 10 times. A quantity of 0.12 µL of this compound dilution plate was spotted into a 96-well PCR plate (Thermo). Sample RNAs were added (6 µL) and incubated with test compounds as described below. Final compound concentrations ranged from 600 µM to 0.018 µM in 2% DMSO.
For the degradation reaction, treated RNAs were incubated for 16 hrs at 30° C. for Chi18 samples or 42° C. for HCV samples. Upon completion of the degradation reaction, cDNA was made and ddPCR run for each sample (96 well plates). Positive 5′ droplet values were divided by the total accepted droplet values for each sample and a ratio value generated for each sample.
Data was imported into a database where percent (%) protection and compound EC50 were calculated and curated. […] EC50 was determined by using a four parameter logistic equation: Y=A+((B-A)/(1+(C/X)D)); where Y is percent protection, X is compound concentration, A and B are minimum and maximum asymptotes, respectively, C is EC50, and D is Hill slope.

Row | Structure (SMILES) | EC50 [µM]
1 | CC(C)(C)OC(=O)NCCC[B-](F)(F)F [PF-06934734, {3-[(tert-butoxycarbonyl)amino]propyl}(trifluorido)borate(1-)] | 302
2 | C[C@H]1c2ccc(NC(=O)c3ccc4c(c3)B(O)OC4)c(O)c2C(=O)C2=C(O)[C@]3(O)C(=O)C(C(N)=O)=C(O)[C@@H](N(C)C)[C@@H]3[C@@H](O)[C@@H]21 [PF-06968126, N-[(5R,5aR6S,6aR,7S,10aS)-9-carbamoyl-7-(dimethylamino)-1,6,8,10a,11-pentahydroxy-5-methyl-10,12-dioxo-5,5a,6,6a,7,10,10a,12-octahydrotetracen-2-yl]-1-hydroxy-1,3-dihydro-2,1-benzoxaborole-6-carboxamide] | 393
3 | Cc1cccnc1N(C(=O)c1ccc([B-](F)(F)F)cc1)[C@@H]1CCCN(C(=O)OC(C)(C)C)C1 [PF-06875313, (4-{[(3R)-1-(tert-butoxycarbonyl)piperidin-3-yl](3-methylpyridin-2-yl)carbamoyl}phenyl)(trifluor ido)borate(1-)] | 360
4 | BBBBBBBBBB1C(Cc2ccc(O)cc2)=C1Cc1ccc(O)cc1 [PF-01914444, 4,4′-{[1-(nonaboran-1-yl)-1H-borirene-2,3-diyl]bis(methylene)}diphenol] | 488
5 | Cc1cc(C(=O)O)ccc1B1OC(C)(C)C(C)(C)O1 [PF-05417781, 3-methyl-4-(4,4,5,5-tetramethyl-1,3,2-dioxaborolan-2-yl)benzoic acid] | 463
6 | Clc1cc2c(cc1Cl)OB(c1ccc(Br)cc1)O2 [PF-04009301, 2-(4-bromophenyl)-5,6-dichloro-2H-1,3,2-benzodioxaborole] | 474
7 | O=C(OB(c1cccc(F)c1)c1cccc(F)c1)c1ncccc1O [PF-06956417] | 430
8 | CC1(C)COC(c2cccc(B(Oc3cccc4cccnc34)c3cccc(F)c3)c2)=N1 [PF-06956596, quinolin-8-yl [3-(4,4-dimethyl-4,5-dihydro-1,3-oxazol-2-yl)phenyl](3-fluorophenyl)borinate] | 300
9 | C=C(CN(C)Cc1ccccc1)[B-](F)(F)F [PF-06840997, {3-[benzyl(methyl)amino]prop-1-en-2-yl}(trifluorido)borate(1-)] | 306
10 | CN(C)/C(O)=C/C1=[O+][B-](F)(F)Oc2cc(O)ccc21 [PF-03806704, {(2Z)-3-(dimethylamino)-3-hydroxy-1-[4-hydroxy-2-(hydroxy-kappaO)phenyl]prop-2-en-1-onato-kappaO}(difluorido)boron] | 323
11 | C[C@H]1c2ccc(NC(=O)c3ccc4c(c3)B(O)OC4(C)C)c(O)c2C(=O)C2=C(O)[C@]3(O)C(=O)C(C(N)=O)=C(O)[C@@H](N(C)C)[C@@H]3[C@@H](O)[C@@H]21 [PF-06968101, N-[(5R,5aR,6S,6aR,7S,10aS)-9-carbamoyl-7-(dimethylamino)-1,6,8,10a,11-pentahydroxy-5-methyl-10,12-dioxo-5,5a,6,6a,7,10,10a,12-octahydrotetracen-2-yl]-1-hydroxy-3,3-dimethyl-1,3-dihydro-2,1-benzoxaborole-6-carboxamide] | 162
12 | COC(=O)c1cc(B2OC(C)(C)C(C)(C)O2)cc(C(=O)OC)n1 [PHA-00804319, dimethyl 4-(4,4,5,5-tetramethyl-1,3,2-dioxaborolan-2-yl)pyridine-2,6-dicarboxylate] | 214
13 | CN1CCN(Cc2ccc(B(Oc3cccc4cccnc34)c3ccc(C#N)c(Cl)c3)cc2)CC1 [PF-06956831, quinolin-8-yl (3-chloro-4-cyanophenyl){4-[(4-methylpiperazin-1-yl)methyl]phenyl}borinate] | 242
14 | Cc1cc(CNc2nc(N3CCC[C@@H](c4ccccc4C)C3)nc3[nH]ccc23)on1 [PF-00838447, N-[(3-methyl-1,2-oxazol-5-yl)methyl]-2-[(3S)-3-(2-methylphenyl)piperidin-1-yl]-7H-pyrrolo[2,3-d]pyrimidin-4-amine] | 388
15 | CN(C)c1cc(NC(=O)CCNC(=O)c2ccc3c(c2)COB3O)c(O)c2c1C[C@H]1C[C@H]3[C@H](N(C)C)C(O)=C(C(N)=O)C(=O)[C@@]3(O)C(O)=C1C2=O [PF-06967772, N-(3-{[(5aR,6aS,7S,10aS)-9-carbamoyl-4,7-bis(dimethylamino)-1,8,10a,11-tetrahydroxy-10,12-dioxo-5,5a,6,6a,7,10,10a,12-octahydrotetracen-2-yl]amino}-3-oxopropyl)-1-hydroxy-1,3-dihydro-2,1-benzoxaborole-5-carboxamide] | 286
16 | C[C@H]1c2c(NC(=O)c3ccc4c(c3)B(O)OC4)ccc(O)c2C(=O)C2=C(O)[C@]3(O)C(=O)C(C(N)=O)=C(O)[C@@H](N(C)C)[C@@H]3[C@@H](O)[C@@H]21 [PF-06968384, N-[(6aS,10S,10aR,11S,11aR, 12R)-8-carbamoyl-10-(dimethylamino)-4,6,6a,9,11-pentahydroxy-12-methyl-5,7-dioxo-5,6a,7,10,10a,11,11a,12-octahydrotetracen-1-yl]-1-hydroxy-1,3-dihydro-2,1-benzoxaborole-6-car boxamide] | 281
17 | CN(C)Cc1ccc(B(Oc2cccc3cccnc23)c2cccc(C#N)c2)cc1Cl [PF-06956816, quinolin-8-yl {3-chloro-4-[(dimethylamino)methyl]phenyl}(3-cyanophenyl)borinate] | 137
18 | O=C(OCc1cccc(B2OCc3cc(F)ccc32)c1)c1ccc2cccc(O)c2n1 [PF-06957137, [3-(5-fluoro-2,1-benzoxaborol-1 (3H)-yl)phenyl]methyl 8-hydroxyquinoline-2-carboxylate] | 429
19 | CN1CCN(Cc2cccc([B@@-]3(c4ccc(F)cc4)Oc4cccc5ccc[n+]3c45)c2)CC1 [PF-06956810, (4-fluorophenyl){3-[(4-methylpiperazin-1-yl)methyl]phenyl}(quinolin-8-olato-kappa-2-N,O)boron] | 140
20 | O=C(O)C[C@@H]1OB(O)c2cccc(B(O)O)c21 [PF-06961361, [(3S)-4-borono-1-hydroxy-1,3-dihydro-2,1-benzoxaborol-3-yl]acetic acid] | 226
21 | C[C@H]1c2ccc(NCCC(=O)Nc3ccc4c(c3)B(O)OCC4)c(O)c2C(=O)C2=C(O)[C@]3(O)C(=O)C(C(N)=O)=C(O)[C@@H](N(C)C)[C@@H]3[C@@H](O)[C@@H]21 [PF-06968237, (4S,4aR,5S,5aR,6R,12aS)-4-(dimethylamino)-3,5,10,12,12a-pentahydroxy-9-({3-[(1-hydroxy-3,4-dihydro-1H-2,1-benzoxaborinin-7-yl)amino]-3-oxopropyl}amino)-6-methyl-1,11-dioxo-1,4,4a,5,5a,6,11,12a-octahyd rotetracene-2-carboxamide] | 166
22 | C[C@H]1c2ccc(NC(=O)CNc3ccc4c(c3)B(O)OC4(C)C)c(O)c2C(=O)C2=C(O)[C@]3(O)C(=O)C(C(N)=O)=C(O)[C@@H](N(C)C)[C@@H]3[C@@H](O)[C@@H]21 [PF-06968306, (4S,4aR,5S,5aR,6R,12aS)-4-(dimethylamino)-3,5,10,12,12a-pentahydroxy-9-{[N-(1-hydroxy-3,3-dimethyl-1,3-dihydro-2,1-benzoxaborol-6-yl)glycyl]amino}-6-methyl-1,11-dioxo-1,4,4a,5,5a,6,11,12a-octahydrotet racene-2-carboxamide] | 234
